Values joined by “and” are separate entries in the source; they are usually repeats but may differ in a detail not shown here. Equal values may be shown once.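 How tested: cells in 96-well plates exposed to compound for 48 hours at five concentrations. Abbreviation: GI50, concentration required for 50% inhibition of growth. TGI: concentration producing complete growth inhibition.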 Where a SMILES comes first, the peptide text is derived from it.
Assays:
Assay in all cases: NCI anticancer screen, dose series, 48 h
UACC-257 melanoma = tested on: UACC-257 melanoma
OVCAR-4 ovarian = tested on: OVCAR-4 ovarian
HCT-15 colon = tested on: HCT-15 colon
BT-549 breast = tested on: BT-549 breast
SNB-19 CNS = tested on: SNB-19 CNS
RPMI-8226 leukemia = tested on: RPMI-8226 leukemia
IGROV1 ovarian = tested on: IGROV1 ovarian
SW-620 colon = tested on: SW-620 colon
MDA-MB-435 = tested on: MDA-MB-435
SNB-75 CNS = tested on: SNB-75 CNS

Row | SMILES | TGI (UACC-257 melanoma) [µM] | TGI (OVCAR-4 ovarian) | TGI (HCT-15 colon) [µM] | TGI (BT-549 breast) [µM] | TGI (SNB-19 CNS) [µM] | TGI (RPMI-8226 leukemia) [µM] | TGI (IGROV1 ovarian) [µM] | TGI (SW-620 colon) [µM] | TGI (MDA-MB-435) [µM] | TGI (SNB-75 CNS) [µM] | GI50 (UACC-257 melanoma) [µM] | GI50 (OVCAR-4 ovarian) [µM] | GI50 (HCT-15 colon) [µM] | GI50 (BT-549 breast) [µM] | GI50 (SNB-19 CNS) [µM] | GI50 (RPMI-8226 leukemia) [µM] | GI50 (IGROV1 ovarian) [µM] | GI50 (SW-620 colon) [µM] | GI50 (MDA-MB-435) [µM] | GI50 (SNB-75 CNS) [µM]
1 | Cc1ccc(/C=C2\CN(C)CC3=C2OC(N)=C(C#N)C3c2ccc(C)cc2)cc1 (stereo not given) | 43.1 | 34 µM | 42.9 | 40.1 | 73.4 | > 48.7 | 39.4 | > 100 | 34.7 | – | – | – | – | – | – | – | – | – | – | –
2 | CCOC(=O)c1c(C)n(Cc2ccccc2)c(=O)c2ccccc2c(=O)c2c(=O)ccc(=O)c1=2 | > 100 | > 100 µM | > 100 | – | > 100 | 67.3 | 67.9 | > 100 | > 100 | > 100 | – | – | – | – | – | – | – | – | – | –
3 | CCN(CC)c1ccc(/C=C(\C#N)c2nc(N)nc(N3N=C(C)CC3(C)C)n2)cc1 | > 100 | 30.5 µM | > 100 | > 100 | 37.1 | > 100 | 34.2 | > 100 | > 100 | 28.8 | – | – | – | – | – | – | – | – | – | –
4 | Cc1c(N2C(=O)/C(=C/C=C/c3ccccc3)N=C2c2ccccc2)c(=O)n(-c2ccccc2)n1C | 42.1 | 50.3 µM | 21 | 40.2 | – | 47.6 | 35.5 | 99.4 | 33.1 | 32.1 | – | – | – | – | – | – | – | – | – | –
5 | CC(C)=CCC[C@]1(C)CC[C@]2(C)C3CCC(=C(C)C)[C@@H](CCCO)[C@]3(C)CC[C@@]2(C)C1 (stereo not given in full) | 77.1 | > 100 µM | > 100 | > 100 | > 100 | > 100 | 37.9 | > 100 | > 100 | > 100 | – | – | – | – | – | – | – | – | – | –
6 | CSC1=N/C(=C\c2ccc(C)cc2)C(=O)N1CN1CCOCC1 | – | 32.9 µM | > 100 | – | > 100 | > 100 | > 100 | > 100 | > 100 | > 100 | – | – | – | – | – | – | – | – | – | –
7 | CCN(CC)C(=S)SS(=O)(=O)c1ccccc1C(=O)O | > 100 | > 100 µM | > 100 | > 100 | > 100 | > 100 | > 100 | > 100 | > 100 | > 100 | – | – | – | – | – | – | – | – | – | –
8 | Cc1ccc2c(c1)SSSSS2 | 38.5 | 37.2 µM | 30 | 39.1 | 48 | – | 40.8 | 37.1 | 38.8 | 49.2 | – | – | – | – | – | – | – | – | – | –
9 | CSc1ccc2c(cc1=O)[C@@H](NC(C)=O)CCc1cc(O)c(O)c(O)c1-2 | > 100 | 35.5 µM | 34.2 | 56.9 | 78.9 | > 100 | 32.4 | > 100 | 29.9 | 53 | – | – | – | – | – | – | – | – | – | –
10 | COC(CN(C)C(=O)C(C)NC(=O)c1ccccc1)OC (stereo not given) | > 100 | > 100 µM | > 100 | > 100 | – | > 100 | > 100 | > 100 | > 100 | > 100 | – | – | – | – | – | – | – | – | – | –
11 | O=c1[nH]c2ccc(C(F)(F)F)cc2nc1-c1ccccc1 | > 100 | – | > 100 | > 100 | > 100 | > 100 | > 100 | > 100 | > 100 | > 100 | – | – | – | – | – | – | – | – | – | –
12 | C=C1C(=O)O[C@@H]2[C@H]3O[C@]3(C)CCC=C(C)CC[C@@H]12 | 34.9 | 45.3 µM | 35.3 | – | 163 | 77.2 | 52.4 | 34.5 | – | 123 | – | – | – | – | – | – | – | – | – | –
13 | NC(=O)NC(=O)c1cnccn1 | > 100 | > 100 µM | > 100 | – | > 100 | > 100 | – | > 100 | > 100 | – | – | – | – | – | – | – | – | – | – | –
14 | CC1=C2C(O)C(C(C)C(=O)NCC(C)C)CCC2(C)C=CC1=O (stereo not given) | > 100 | > 100 µM | > 100 | – | > 100 | > 100 | > 100 | > 100 | – | > 100 | – | – | – | – | – | – | – | – | – | –
15 | CC/C(=N\NC(=O)c1cccnc1)c1ccc2c(c1)OCCO2 | – | > 100 µM | > 100 | > 100 | > 100 | > 100 | > 100 | > 100 | > 100 | > 100 | – | – | – | – | – | – | – | – | – | –
16 | CN(C)CCCNc1c(O)c2c(c(O)c1Cl)C(=O)C=CC2=O | 3.71 | 2.82 µM | 3.28 | 2.94 | 4.67 | – | 3.45 | 3.39 | 4.33 | > 10 | – | – | – | – | – | – | – | – | – | –
17 | CN1C2CCC1CC(OC(c1ccccc1)c1ccccc1)C2 (stereo not given) | 26.6 | > 100 µM | 78.8 | 41.2 | 48.3 | 33.4 | 38.8 | 27.6 | 29.8 | 72.8 | – | – | – | – | – | – | – | – | – | –
18 | CCc1ccc(-c2nnc(COc3ccc(-c4nc5ccc(C)cc5[nH]4)cc3OC)o2)cc1 | 16.2 | 3.53 µM | 10.3 | 4.34 | > 100 | 5.75 | > 100 | 62.4 | 6.97 | 2.96 | 3.57 | 1.74 | 2.82 | 1.96 | 4.63 | 2.26 | 4.94 | 3.75 | 2.51 | 1.41
19 | C=C(O)c1ccccc1C#Cc1ccccc1C(=O)OC | > 10 | > 10 µM | > 10 | > 10 | > 10 | > 10 | > 10 | > 10 | > 10 | > 10 | – | – | – | – | – | – | – | – | – | –
20 | CC1NC(=O)CNC(=O)CNC(=O)C(Cc2ccc(O)cc2)NC(=O)C(C(C)C)NC(=O)C(C)NC1=O (stereo not given) (cyclo(GGAAVY); configuration not given here) | > 100 | > 100 µM and 22.7 µM | > 100 | – | > 100 | > 100 | > 100 | > 100 | – | > 100 | – | > 100 | – | – | – | – | – | – | – | –
21 | CN(C1=NCCO1)c1cccc2ccccc12 | – | > 10 µM | > 10 | – | > 10 | > 10 | > 10 | > 10 | > 10 | > 10 | – | – | – | – | – | – | – | – | – | –

From PubChem BioAssay (NCI)
